Legend:
[1] = system: normal NK cells expanded with K562-aAPC; assay: percent inhibition of viability; higher = more inhibition; conditions: 72 h, IL-2 2.5 ng/mL
Experimental: (§1)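 Drug sensitivity and resistance testing on K562-aAPC-expanded normal NK cells: 5 concentrations (10-fold steps over a 10,000-fold range), 72 h at 37 °C, viability by CellTiter-Glo normalised to DMSO and benzethonium chloride controls; DSS from the fitted curve.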

[2] = system: normal NK cells expanded with K562-aAPC; assay: drug sensitivity score (DSS) (DSS units); higher = more sensitive; extreme values may be limits of the assay; conditions: 72 h; IL-2 2.5 ng/mL
Experimental: as §1

[3] = system: normal primary NK cells, pool 1 (3 donors), resting (IL-2 0 ng/mL); assay: percent inhibition of viability; higher = more inhibition; conditions: 72 h
[4] = system: normal primary NK cells, pool 2 (3 donors) (IL-2 2.5 ng/mL); assay: as above; conditions: 72 h
[5] = system: SNK-6 (IL-2 2.5 ng/mL); assay: as above; conditions: 72 h
[6] = system: DERL-7 (IL-2 2.5 ng/mL); assay: as above; conditions: 72 h
[7] = system: IMC-1 (IL-2 20 ng/mL); assay: as above; conditions: 72 h
[8] = system: NK-92 (IL-2 2.5 ng/mL); assay: as above; conditions: 72 h
[9] = system: KHYG-1 (IL-2 2.5 ng/mL); assay: as above; conditions: 72 h
[10] = system: normal primary NK cells, pool 3 (3 donors) (IL-2 2.5 ng/mL); assay: as above; conditions: 72 h
[11] = system: NK-YS (IL-2 2.5 ng/mL); assay: as above; conditions: 72 h
[12] = system: NKL (IL-2 2.5 ng/mL); assay: as above; conditions: 72 h
[13] = system: KAI3 (IL-2 2.5 ng/mL); assay: as above; conditions: 72 h
[14] = system: normal primary NK cells, pool 1 (3 donors) (IL-2 2.5 ng/mL); assay: as above; conditions: 72 h
[15] = system: YT (IL-2 2.5 ng/mL); assay: as above; conditions: 72 h
[16] = system: normal primary NK cells, pool 1 (3 donors), resting (IL-2 0 ng/mL); assay: drug sensitivity score (DSS) (DSS units); higher = more sensitive; extreme values may be limits of the assay; conditions: 72 h
[17] = system: normal primary NK cells, pool 2 (3 donors) (IL-2 2.5 ng/mL); assay: as above; conditions: 72 h
[18] = system: SNK-6 (IL-2 2.5 ng/mL); assay: as above; conditions: 72 h
[19] = system: DERL-7 (IL-2 2.5 ng/mL); assay: as above; conditions: 72 h
[20] = system: IMC-1 (IL-2 20 ng/mL); assay: as above; conditions: 72 h
[21] = system: NK-92 (IL-2 2.5 ng/mL); assay: as above; conditions: 72 h
[22] = system: KHYG-1 (IL-2 2.5 ng/mL); assay: as above; conditions: 72 h
[23] = system: normal primary NK cells, pool 3 (3 donors) (IL-2 2.5 ng/mL); assay: as above; conditions: 72 h
[24] = system: NK-YS (IL-2 2.5 ng/mL); assay: as above; conditions: 72 h
[25] = system: NKL (IL-2 2.5 ng/mL); assay: as above; conditions: 72 h
[26] = system: KAI3 (IL-2 2.5 ng/mL); assay: as above; conditions: 72 h
[27] = system: normal primary NK cells, pool 1 (3 donors) (IL-2 2.5 ng/mL); assay: as above; conditions: 72 h
[28] = system: YT (IL-2 2.5 ng/mL); assay: as above; conditions: 72 h

CC(=O)NCC(=O)N1[C@@H]2CC[C@H]1c1ccc(Nc3ncc(C(F)(F)F)c(NC4CCC4)n3)cc12 (max concentration tested 10000 nM)
percent inhibition of viability [%]
Conditions | 1 nM | 10 nM | 100 nM | 1000 nM | 10000 nM
[1] | -3.83 | 6.05 | 58.2 | 91 | 101
[3] | -11.5 | -16.5 | -21.3 | -42.6 | 91.9
[4] | -12.8 | 1.36 | 16.8 | 50.3 | 96.5
[5] | 9.63 | 33.2 | 82.6 | 85.3 | 98.7
[6] | -3.49 | 2.07 | 76.5 | 79.7 | 101
[7] | 1.14 | -0.36 | 54.2 | 92.5 | 102
[8] | -9.89 | 2.73 | 54 | 76.7 | 104
[9] | 5.24 | 7.98 | 82.5 | 103 | 105
[10] | -18.1 | -9.96 | 2.88 | 33.6 | 97.8
[11] | -3.49 | 7.45 | 62.7 | 65.7 | 102
[12] | -9.97 | 18.8 | 54.1 | 75 | 104
[13] | 2 | 18.3 | 49.2 | 85 | 103
[14] | 4.9 | -3.44 | 17 | 44.7 | 98.1
[15] | 3.79 | 9.48 | 23.2 | 62.2 | 103

Conditions | drug sensitivity score
[2] | 24.6
[16] | 3.63
[17] | 12
[18] | 31
[19] | 27.3
[20] | 24.2
[21] | 22.1
[22] | 28.7
[23] | 10
[24] | 21.9
[25] | 22.5
[26] | 22.9
[27] | 11
[28] | 15.1

CC(C)Oc1ccc(C(=O)N[C@H](CNC(=O)CN(C)C)Cc2ccc(-c3cn4cccc([C@H](C)O)c4n3)cc2)cc1Cl (max concentration tested 10000 nM)
percent inhibition of viability [%]
Conditions | 1 nM | 10 nM | 100 nM | 1000 nM | 10000 nM
[1] | 5.14 | 3.61 | 10.7 | 62 | 88.4
[3] | -16.4 | -27 | -21.3 | -33.1 | 54.9
[4] | -5.03 | 7.38 | 7.4 | 6.97 | 31
[5] | 1.52 | 24 | 74.4 | 84.6 | 89.7
[6] | 3.17 | 0.65 | 70.1 | 99.2 | 98.2
[7] | -5.65 | 4.24 | 8.53 | 95.8 | 99.2
[8] | 0.16 | 3.89 | 18.2 | 96.7 | 106
[9] | -0.23 | 3.89 | 37.2 | 105 | 106
[10] | -8.24 | -2.71 | 16.4 | 4.47 | 33.7
[11] | -1.16 | 1.87 | 67.4 | 78.2 | 89.7
[12] | 2.24 | 7.12 | 66.4 | 93.5 | 91.1
[13] | -6.47 | -5.43 | 37.5 | 53.3 | 103
[14] | -2.11 | -10.1 | 1.46 | -2.94 | 28.1
[15] | 1.62 | 7.48 | 76.3 | 101 | 104

Conditions | drug sensitivity score
[2] | 13.2
[16] | 1.92
[17] | 2.26
[18] | 27.8
[19] | 25.9
[20] | 18.9
[21] | 20.2
[22] | 23.1
[23] | 2.31
[24] | 24.4
[25] | 25.3
[26] | 15.1
[27] | 0.98
[28] | 27.8

CCn1c(-c2nonc2N)nc2c(C#CC(C)(C)O)ncc(OC[C@H]3CCCNC3)c21 (max concentration tested 10000 nM)
percent inhibition of viability [%]
Conditions | 1 nM | 10 nM | 100 nM | 1000 nM | 10000 nM
[1] | -1.22 | -3.93 | -1.94 | 9.38 | 20.1
[3] | -12.7 | -5.26 | 17.9 | 18.4 | 83.5
[4] | -2.46 | -9.24 | -1.71 | 8.35 | 69.8
[5] | 1.15 | 26.6 | -2.76 | -11.1 | -25.3
[6] | -2.25 | 7.79 | 17.3 | 63.7 | 76.9
[7] | -5.57 | 1.4 | -4.57 | -6.32 | -11.7
[8] | -4.48 | -3.46 | -8.79 | -1.49 | 26.3
[9] | -3.45 | -0.24 | -0.07 | 6.49 | 7.82
[10] | -10.1 | -4.39 | -9.15 | 11.5 | 66.5
[11] | -2.15 | 0.74 | -0.26 | 2.64 | -8.44
[12] | -5.47 | -17.8 | -8.99 | 0.96 | 9.13
[13] | 0.15 | -2.81 | 1.43 | 5.52 | -1.32
[14] | -8.01 | -9.66 | 4.32 | 9.43 | 76.3
[15] | -1.14 | -1.15 | 0.26 | 5.9 | 9.45

Conditions | drug sensitivity score
[2] | 1.58
[16] | 7.29
[17] | 5.23
[18] | 0
[19] | 13.9
[20] | 0
[21] | 0.93
[22] | 0
[23] | 5.55
[24] | 0
[25] | 0
[26] | 0
[27] | 5.8
[28] | 0

O=C1NC(=O)/C(=C/c2ccc3nccc(-c4ccncc4)c3c2)S1 (max concentration tested 10000 nM)
percent inhibition of viability [%]
Conditions | 1 nM | 10 nM | 100 nM | 1000 nM | 10000 nM
[1] | -7.65 | -6.22 | -2.48 | 25.2 | 68.2
[3] | 7.14 | 23.7 | 24.7 | 33.3 | 68.1
[4] | -5.69 | 2.64 | 12.6 | 32.4 | 82.4
[5] | 7.06 | 2.93 | 5.43 | 30.6 | 67.5
[6] | -4.4 | 4.35 | 9.03 | 60.2 | 88.2
[7] | -1.41 | -1.05 | 0.35 | -13.3 | 36.1
[8] | -4.72 | -6.37 | -0.26 | 24.6 | 63.5
[9] | -3.03 | -2.9 | 7.97 | 47.8 | 78.5
[10] | -4.27 | 3.99 | 9.93 | 15.9 | 69.4
[11] | -5.37 | -5.14 | 5.36 | 42.1 | 74.2
[12] | -16.6 | -12.9 | 3.48 | 52.1 | 76.4
[13] | 4.6 | -4.46 | 10.8 | 33.3 | 66
[14] | -6.7 | 13.9 | 10.7 | 28.1 | 58.9
[15] | -1.99 | -2.62 | 7.22 | 58.7 | 82.4

Conditions | drug sensitivity score
[2] | 7.25
[16] | 14.1
[17] | 8.23
[18] | 7.19
[19] | 12.7
[20] | 1.19
[21] | 6.85
[22] | 10.3
[23] | 6.25
[24] | 9.16
[25] | 10.6
[26] | 7.69
[27] | 6.93
[28] | 12.1

NCC(=O)Nc1ccc(-n2nc(C(F)(F)F)cc2-c2ccc3c(ccc4ccccc43)c2)cc1 (max concentration tested 25000 nM)
percent inhibition of viability [%]
Conditions | 2.5 nM | 25 nM | 250 nM | 2500 nM | 25000 nM
[1] | 1.57 | 3.13 | 3.22 | 12.5 | 101
[3] | -7.15 | -17.6 | -5.36 | -14.6 | 41.8
[4] | -4.35 | -2.12 | 12.8 | 2.37 | 102
[5] | 2.2 | 12.3 | 18 | 28 | 101
[6] | -6.63 | 0.68 | 3.86 | -3.39 | 34.2
[7] | 1.94 | 6.76 | 5.99 | 19.6 | 101
[8] | -3.92 | -7.91 | 18.1 | 14.3 | 106
[9] | 9.05 | 11.9 | 21.5 | 43.8 | 84.5
[10] | -4.48 | -1.93 | 9.24 | 3.09 | 101
[11] | 2.51 | 6.9 | 13.3 | 53.1 | 101
[12] | 9.41 | 11.2 | 10.1 | 18.2 | 76.8
[13] | 13.1 | 14.3 | 13.5 | 14.9 | 104
[14] | 4.23 | -5.3 | 6.37 | -4.79 | 24.2
[15] | 8.95 | 9.77 | 11.9 | 10.6 | 104

Conditions | drug sensitivity score
[2] | 7.63
[16] | 1.49
[17] | 6.08
[18] | 9.36
[19] | 1.36
[20] | 8.71
[21] | 8.05
[22] | 11.9
[23] | 6.06
[24] | 12.3
[25] | 6.99
[26] | 8.11
[27] | 0.67
[28] | 7.45

From the supplement of paper PMC5908809
